From patent publication US20240299328A1, “COMPOSITIONS COMPRISING 15-HEPE AND METHODS OF TREATING AND/OR PREVENTING HEMATOLOGIC DISORDERS AND RELATED DISEASES” (Afimmune Limited, priority 2023, published 2024)
Read-outs that look alike come from different tables or passages of the source.

Key:
[1] = tested on: α-SMA, TIMP-1, TGF-β and Collagen Type 1 mRNA; assay: BDL study: quantitative RT-PCR of liver; type: in vivo; conditions: BDL mice liver, normalized to 36B4, Day 14, mean ± SD
Procedure: Quantitative RT-PCR: Total ribonucleic acid (RNA) was extracted from liver samples using RNAiso. One μg of RNA was reverse-transcribed using a reaction mixture containing 4.4 mM magnesium chloride (MgCl2), 40 U RNase inhibitor, 0.5 mM dNTP, 6.28 μM random hexamer, 5× first strand buffer, 10 mM dithiothreitol and 200 U MMLV-RT in a final volume of 20 μL. The reaction was carried out for 1 hour at 37° C., followed by 5 minutes at 99° C. Real-time PCR was performed using real-time PCR DICE and TB Green™ Premix Ex Taq™ II. To calculate the relative mRNA expression level, the expression of each gene (α-SMA, TIMP-1, TGF-β and Collagen Type 1) was normalized to that of reference gene 36B4 (gene symbol: Rplp0). Information regarding the PCR-primer sets and the plate layout are described in Tables 8 and 9.

[2] = tested on: UUO mice; type: in vivo
Procedure: UUO Surgery: On day 0 of the study, UUO surgery was performed on mice under pentobarbital sodium anesthesia. The mouse's hair was first shaved and then abdomen cut open to exteriorize the mouse's left ureter. The ureter was ligated 4-0 nylon sutures at two points. The mouse's peritoneum and skin were then closed with sutures, and the mouse transferred to a clean cage until recovered from the anesthesia. Sham operated mice had their left ureter exposed but not ligated. […]
(§1) Animals: Seven-week-old female C57BL/6 mice (i.e., animals) were obtained and were housed and fed with a normal diet under controlled conditions. The animals were maintained in a specific-pathogen free (SPF) facility under controlled conditions of temperature (e.g., 23±2° C.), humidity (e.g., 45±10%), lighting (e.g., 12-hour artificial light and dark cycles; light from 8:00 to 20:00) and air exchange. A high pressure was maintained in the experimental room to prevent contamination of the facility. The animals were housed in TPX cages with a maximum of 4 mice per cage. Sterilized Paper-Clean was used for bedding and replaced once a week. Sterilized solid normal diet was provided ad libitum, being placed in a metal lid on the top of the cage. Pure water was also provided ad libitum from a water bottle equipped with a rubber stopper and a sipper tube. Water bottles were replaced once a week, cleaned, and sterilized in an autoclave and reused. Mice were identified by ear punch and each cage was labeled with a specific identification code.
(§2) Animal Monitoring and Sacrifice: The viability, clinical signs and behavior for the mice were monitored daily. Individual body weight was measured daily before treatment during the treatment period. […] The animals were sacrificed by exsanguination through direct cardiac puncture under isoflurane anesthesia at Day 14.

[3] = tested on: rats; conditions: 28-day dose ranging study; cited from earlier work
[4] = tested on: UUO mice; assay: UUO study: Sirius red staining, kidney fibrosis area; type: in vivo
Procedure: Histopathological analysis: To visualize collagen deposition, kidney sections were stained using picro-Sirius red solution. For quantification of interstitial fibrosis area, bright field images in the corticomedullary region were captured using a digital camera at 200-fold magnification, and the positive areas in 5 fields/section were measured.

[5] = tested on: BDL-operated mice; type: in vivo
Procedure: BDL Surgery: On Day 0 of the study, BDL surgery was performed under pentobarbital anesthesia. The mouse's hair was first shaved, the abdominal cavity cut open, and the common bile duct was ligated twice with 7-0 surgical silk. The mouse's peritoneum and the skin were closed with sutures, and the mice were transferred to a clean cage (e.g., resting cage) until recovered from anesthesia. Sham operated mice had their common bile duct exposed but not ligated.
as §1, with “Pathogen-free 6 weeks of age male C57BL/6J” for “Seven-week-old female C57BL/6”, “mice” for “mice (i.e., animals)”, “obtained.” for “obtained and were housed and fed with a normal diet under controlled conditions.”
as §2, with “sacrificed at Day 14 after BDL surgery” for “sacrificed”, “anesthesia.” for “anesthesia at Day 14.”

[6] = 50 mg/kg PO QD Day 0-13, Day 14, mean ± SD
[7] = 500 mg/kg PO QD Day 0-13, Day 14, mean ± SD
[8] = 250 mg/kg PO QD Day 0-13, Day 14, mean ± SD
[9] = DS102 50, 250, 500 mg/kg groups vs Vehicle group

SMILES: CC/C=C\C[C@H](O)/C=C/C=C\C/C=C\C/C=C\CCCC(=O)OCC [DS102, 15(S)-hydroxy-(5Z,8Z,11Z,13E,17Z)-eicosapentaenoic acid ethyl ester]
- Alpha-SMA mRNA expression level ([1]; 50 mg/kg PO QD Day 0-13): 3.21 ± 1.67
- Collagen Type 1 mRNA expression level ([1]; 50 mg/kg PO QD Day 0-13): 4.94 ± 2.76
- TGF-β mRNA expression level ([1]; 50 mg/kg PO QD Day 0-13): 1.48 ± 0.48
- TIMP-1 mRNA expression level ([1]; 50 mg/kg PO QD Day 0-13): 43.82 ± 26.19
- Alpha-SMA mRNA expression level ([1]; 250 mg/kg PO QD Day 0-13): 2.66 ± 1.33
- Collagen Type 1 mRNA expression level ([1]; 250 mg/kg PO QD Day 0-13): 4.21 ± 1.90
- TGF-β mRNA expression level ([1]; 250 mg/kg PO QD Day 0-13): 1.50 ± 0.44
- TIMP-1 mRNA expression level ([1]; 250 mg/kg PO QD Day 0-13): 30.65 ± 16.80
- Body Weight [2, 6]: 18.8 ± 0.6 g
- Left Kidney Weight [2, 6]: 469 ± 60 mg
- Right Kidney Weight [2, 6]: 133 ± 10 mg
- Body Weight [2, 7]: 18.7 ± 0.5 g
- Left Kidney Weight [2, 7]: 487 ± 108 mg
- Right Kidney Weight [2, 7]: 136 ± 6 mg
- oral maximum tolerated dose (MTD) [3]: 6 g/kg/day
- Sirius red-positive area (%)_Median ([4]; 50 mg/kg PO QD Day 0-13, Day 14, median): 4.19 ± 3.33%
- Sirius red-positive area (%)_Median ([4]; 500 mg/kg PO QD Day 0-13, Day 14, median): 3.08 ± 1.16%
- Body Weight [5, 6]: 17.4 ± 2.9 g
- Liver Weight [5, 6]: 1392 ± 328 mg
- Body Weight [5, 8]: 17.0 ± 2.4 g
- Liver Weight [5, 8]: 1513 ± 182 mg
- Body Weight [5, 7]: 16.4 ± 1.6 g
- mean body weight at any day during the study period [5, 9]: no significant changes
- mean body weight on the day of sacrifice [5, 9]: no significant differences
- mice found dead before reaching Day 14 ([5]; in the DS102 low, middle and high groups (50, 250, 500 mg/kg), Vehicle three out of 15): seven out of 15
